According to patent US20150272184A1, “NARINGENIN AND SALTS THEREOF FOR SWEETNESS ENHANCEMENT” (International Flavors & Fragrances Inc., priority 2014, published 2015):
Like-named read-outs stand apart in the source and are kept apart here.

Key:
[1] = Sweetness enhancement of artificial sweetener sucralose by naringenin; format: in vivo, human; conditions: sucralose (40 ppm), naringenin 100 ppm
Protocol: (§1) Sucrose solutions of different concentrations were prepared in water. A naringenin (AuNutra Industries Inc) solution was also prepared in water (100 ppm) and used in all of the following examples. In addition, the sweetness enhancement of (i) sucralose (40 ppm), (ii) aspartame (120 ppm) and (iii) acesulfame potassium (120 ppm) by naringenin was also evaluated, respectively.

[2] = Flavor profile of non-fat plain yogurt with 5% sucrose plus naringenin of different concentrations; format: in vivo, human
Protocol: A Danone Non-Fat Plain Yogurt with 5% sucrose was prepared and used as the base. Different amount of naringenin was added to the base to obtain naringenin samples of a series of concentrations ranging from 10 to 1000 ppm.

[3] = Flavor profile of Reb A water solution (10 ppm) plus naringenin of different concentrations; format: in vivo, human
Protocol: A Reb A water solution (10 ppm) was prepared and used as the base. Different amount of naringenin was added to the base to obtain naringenin samples of a series of concentrations ranging from 10 to 1000 ppm.

[4] = cited from earlier work
[5] = Paired comparison of sweetness, sucrose solutions in water with or without naringenin; format: in vivo, human; conditions: for Number of Samples Rated Sweeter: 26 paired samples
From the text: The term “sweetness” or “sweetness intensity” is understood to mean the relative strength of sweet sensation as observed or experienced by an individual, e.g., a human, or a degree or amount of sweetness detected by a taster, for example on the scale from 0 (none) to 8 (very strong) used in sensory evaluations according to the procedure described in American Society for Testing Materials, Special Technical Publication-434: “Manual on Sensory Testing Methods,” ASTM International, West Conshohocken, Pa. (1996). Sucrose solutions of different concentrations were prepared in water. A naringenin (AuNutra Industries Inc) solution was also prepared in water (100 ppm) and used in all of the following examples. Each test group contained 26 paired samples. In each paired samples, a sucrose solution of a higher concentration was compared for sweetness against that of a lower concentration but in combination with naringenin. The results were represented by the numbers of samples rated as sweeter in paired comparisons, which were then statistically analyzed using binomial distribution for two-sided comparisons at 95% confidence level.

[6] = Sweetness enhancement of artificial sweetener aspartame by naringenin; format: in vivo, human; conditions: aspartame (120 ppm), naringenin 100 ppm
Protocol: as §1

[7] = Paired comparison of sweetness, sucrose & Reb A combination with or without naringenin; format: in vivo, human
From the text: The term “sweetness” or “sweetness intensity” is understood to mean the relative strength of sweet sensation as observed or experienced by an individual, e.g., a human, or a degree or amount of sweetness detected by a taster, for example on the scale from 0 (none) to 8 (very strong) used in sensory evaluations according to the procedure described in American Society for Testing Materials, Special Technical Publication-434: “Manual on Sensory Testing Methods,” ASTM International, West Conshohocken, Pa. (1996). Sucrose solutions of different concentrations were prepared in water. A naringenin (AuNutra Industries Inc) solution was also prepared in water (100 ppm) and used in all of the following examples. Each test group contained 26 paired samples. In each paired samples, a sucrose solution of a higher concentration was compared for sweetness against that of a lower concentration but in combination with naringenin. The results were represented by the numbers of samples rated as sweeter in paired comparisons, which were then statistically analyzed using binomial distribution for two-sided comparisons at 95% confidence level. The evaluation is reported in the following: The sweetness enhancement of sucrose & Reb A combination by naringenin was also evaluated.

[8] = Paired comparison of sweetness, Reb A solutions in water with or without naringenin; format: in vivo, human
From the text: The term “sweetness” or “sweetness intensity” is understood to mean the relative strength of sweet sensation as observed or experienced by an individual, e.g., a human, or a degree or amount of sweetness detected by a taster, for example on the scale from 0 (none) to 8 (very strong) used in sensory evaluations according to the procedure described in American Society for Testing Materials, Special Technical Publication-434: “Manual on Sensory Testing Methods,” ASTM International, West Conshohocken, Pa. (1996). Sucrose solutions of different concentrations were prepared in water. A naringenin (AuNutra Industries Inc) solution was also prepared in water (100 ppm) and used in all of the following examples. Each test group contained 26 paired samples. In each paired samples, a sucrose solution of a higher concentration was compared for sweetness against that of a lower concentration but in combination with naringenin. The results were represented by the numbers of samples rated as sweeter in paired comparisons, which were then statistically analyzed using binomial distribution for two-sided comparisons at 95% confidence level. The evaluation is reported in the following: Reb A solutions of different concentrations were prepared in water and the sweetness enhancement by naringenin was similarly evaluated.

[9] = Sweetness enhancement of artificial sweetener acesulfame potassium by naringenin; format: in vivo, human; conditions: acesulfame potassium (120 ppm), naringenin 100 ppm
Protocol: as §1

[10] = cited from earlier work; remark: listed apart in the source
[11] = pair Sucrose (0.5%) vs Naringenin (100 ppm in water), p 0.40

## O=C1CC(c2ccc(O)cc2)Oc2cc(O)cc(O)c21 (centres unmarked) [Naringenin, 2,3-dihydro-5,7-dihydroxy-2-(4-hydroxyphenyl)-4H-1-benzopyran-4-one]
[1]
  sweetness enhancement: enhanced sweetness with an impact up front
[2]; Sample 2, naringenin 10 ppm in yogurt with 5% sucrose
  Flavor Profile: Same as the base
[2]; Sample 3, naringenin 50 ppm in yogurt with 5% sucrose
  Flavor Profile: Minor increase in sweetness
[2]; Sample 4, naringenin 75 ppm in yogurt with 5% sucrose
  Flavor Profile: Slightly more increase in sweetness
[2]; Sample 5, naringenin 100 ppm in yogurt with 5% sucrose
  Flavor Profile: Clear increase in sweetness
[2]; Sample 6, naringenin 250 ppm in yogurt with 5% sucrose
  Flavor Profile: More intense and full-body sweetness
[2]; Sample 7, naringenin 500 ppm in yogurt with 5% sucrose
  Flavor Profile: Full-body sweetness with good impact
[2]; yogurt with 5% sucrose
  concentration at which naringenin exhibited sweetness enhancement: ≥ 50 ppm
  concentration at which undesirable off-notes developed: 1000 ppm
[3]; Reb A water solution (10 ppm)
  concentration at which naringenin exhibited sweetness enhancement: ≥ 50 ppm
  concentration at which undesirable off-notes developed: 750 ppm
[3]; Sample 2, naringenin 10 ppm in Reb A water solution (10 ppm)
  Flavor Profile: Same as that of the base
[3]; Sample 3, naringenin 50 ppm in Reb A water solution (10 ppm)
  Flavor Profile: Very minor increase in sweetness
[3]; Sample 4, naringenin 75 ppm in Reb A water solution (10 ppm)
  Flavor Profile: Slightly more increase in sweetness
[3]; Sample 5, naringenin 100 ppm in Reb A water solution (10 ppm)
  Flavor Profile: Clear increase in sweetness with an impact up
[3]; Sample 6, naringenin 250 ppm in Reb A water solution (10 ppm)
  Flavor Profile: Intense sweetness with a stronger impact up
[3]; Sample 7, naringenin 500 ppm in Reb A water solution (10 ppm)
  Flavor Profile: Intense sweetness with a strong impact up front
[3]; Sample 8, naringenin 750 ppm in Reb A water solution (10 ppm)
  Flavor Profile: More intense sweetness with increased waxy
[4]; in aqueous solutions
  solubility: sparingly soluble
[4]; in ethanol, ether, oils (e.g., olive oil or citrus oil) and supercritical carbon dioxide
  solubility: soluble
[5]; naringenin 100 ppm in combination with a 4% sucrose solution
  sweetness enhanced to a level of a sucrose solution: 4.8%
[5]; naringenin 100 ppm in water alone
  intrinsic sweetness, approximate level of a sucrose solution: ~0.5%
[5]; naringenin 100 ppm with 4% sucrose solution
  enhancement of sucrose sweetness: more than an additive effect
[5]; [11]
  Number of Samples Rated Sweeter: 16
[6]
  sweetness enhancement: enhanced sweetness with an impact up front
[7]; naringenin 100 ppm
  enhancement of the sweetness of sucrose & Reb A combination: significantly enhanced
[7]; naringenin 100 ppm with Reb A (10 ppm) + Sucrose (4%), ppm of Reb A
  enhancement compared with that achieved by Reb A: > 20 ppm
[8]; naringenin 100 ppm
  enhancement of Reb A sweetness: significantly enhanced
[8]; naringenin 100 ppm with 100 ppm Reb A, ppm of Reb A
  enhancement compared with that provided by additional Reb A: < 40 ppm
[9]
  sweetness enhancement: enhanced sweetness with an impact up front
[10]; U.S. Publication No. 2009/0004360
  aftertaste modifier effect: decreases the perception of bitterness or undesirable flavor
[10]; in vivo
  taste of naringenin itself: weak to no sweet taste
[10]; tested up to a concentration of 10 ppm, U.S. Publication No. 2014/0170082
  taste and flavor performance: exhibits bitterness and unpleasant aftertaste, and performs poorly on flavor

## C=C1C[C@@]23CC[C@H]4[C@@](C)(CCC[C@@]4(C)C(=O)O[C@@H]4O[C@H](CO)[C@@H](O)[C@H](O)[C@H]4O)[C@@H]2CC[C@]1(O[C@@H]1O[C@H](CO)[C@@H](O)[C@H](O[C@@H]2O[C@H](CO)[C@@H](O)[C@H](O)[C@H]2O)[C@H]1O[C@@H]1O[C@H](CO)[C@@H](O)[C@H](O)[C@H]1O)C3 [Reb A, rebaudioside A, reference compound]
[8]; pair 140 ppm Reb A vs 100 ppm Reb A + Naringenin (100 ppm), p 0.05, significant
  Number of Samples Rated Sweeter: 19
[8]; pair Reb A (120 ppm) vs Reb A (120 ppm) + Naringenin (100 ppm), p 0.01, significant
  Number of Samples Rated Sweeter: 5

## OC[C@H]1O[C@@](CO)(O[C@H]2O[C@H](CO)[C@@H](O)[C@H](O)[C@H]2O)[C@@H](O)[C@@H]1O [Sucrose, sucrose, reference compound]
[5]; [11]
  Number of Samples Rated Sweeter: 10
[5]; pair Sucrose (4.4%) vs Sucrose (4%) + Naringenin (100 ppm), p 0.01, significant
  Number of Samples Rated Sweeter: 6
[5]; pair Sucrose (4.8%) vs Sucrose (4%) + Naringenin (100 ppm), p >0.40
  Number of Samples Rated Sweeter: 14
